Assay results: US8895277B2, “Legume isoprene synthase for production of isoprene” (Danisco US Inc., priority 2012, dated 2014)

How the values were obtained:
[1] = biological target: Populus alba isoprene synthase, P. alba variant 2 (Populus alba, UniProt Q50L36); assay type: biochemical; conditions: substrate DMAPP; 34° C.; Avg Value
[2] = biological target: Populus alba isoprene synthase, P. alba variant 1 (Populus alba, UniProt Q50L36); assay type: biochemical; conditions: substrate DMAPP; 34° C.; Avg Value
[3] = tested on: E. coli expressing A. hypogaea IspS; experiment: DMAPP toxicity relief: growth in presence of MVA; conditions: FIG. 13
[4] = tested on: E. coli expressing P. alba variant 1 IspS; experiment: DMAPP toxicity relief: growth in presence of MVA; conditions: 15 to 75 mM MVA; FIG. 13
[5] = tested on: E. coli expressing P. alba variant 3 IspS; experiment: DMAPP toxicity relief: growth in presence of MVA; conditions: FIG. 13
[6] = tested on: E. coli expressing P. alba variant 2 IspS
[7] = substrate: CC(C)=CCOP(=O)(O)OP(=O)(O)O; experiment: purified protein, by the assay type; conditions: other: substrate DMAPP, 34° C., Avg Value

Molecule: CC(C)=CCOP(=O)(O)OP(=O)(O)O [DMAPP, 3,3-dimethylallyl diphosphate]
- Km [1]: 2880 µM
- Km [2]: 2790 µM

Molecule: C[C@@](O)(CCO)CC(=O)O [MVA, mevalonic acid]
- MVA concentration at which significant growth was seen [3]: 15 to 45 mM
- Growth inhibition by MVA [4]: growth was inhibited at any concentration of MVA tested
- MVA concentration at which growth was partially inhibited [5]: at least 30 mM
- MVA concentration at which growth was inhibited [6]: higher than 15 mM

B1: Arachis hypogaea isoprene synthase (A. hypogaea IspS), SEQ ID NO: 3 (Arachis hypogaea) (protein)
chain: MNTRRSANYQPNLWDFEFLQSVENDLQVERLEERARKLEEEVRGLMKKVEIEPLSLLELMDNVERLGLTYKFEEDIKSALNNRIVPLLHHHTINKYGLHATALSFRFLRQHAFHVSPDVFESFKEEGKFKKEISGDVLGLLNLYETSYLGFEGETILDEARAFSATHLKNLLQTNQVQNKVMAEKVRHALELPYHRRVHRLEARWFIERYEQKEAHDGALLELAKLDFNMVQSVMKKELQELSRWWREIGLTSKLDFVRDRLMEVYFWALGMAPHPQLTECRKAVTKMFGLVTIIDDVYDVYGTLDELQLFTDAVDRWDVNAVETLPDYMKLCYLALYNSVNDTAYSTLREKGDNSLPHLAKSWRDLCKAFLQEAKWSNNKIIPPFDAYIRNASVSSSGGALLAPCYFSVTQDSTSQAIDSITNYHGIVRSSCAIFRLCNDLATSAAELERGETTNSITSYMTENGTTEEEARESLGKLIDQEWKKMNRDVVLESAYPNVFKEIAINMARVSHCTYQYGDGLGRPDDTAENRIKLSLIEPIPIN
- Km [7]: 18300 µM

B2: Populus alba isoprene synthase (P. alba IspS), wild type (WT) (Populus alba) (protein)
chain: MEARRSANYEPNSWDYDYLLSSDTDESIEVYKDKAKKLEAEVRREINNEKAEFLTLLELIDNVQRLGLGYRFESDIRGALDRFVSSGGFDAVTKTSLHGTALSFRLLRQHGFEVSQEAFSGFKDQNGNFLENLKEDIKAILSLYEASFLALEGENILDEAKVFAISHLKELSEEKIGKELAEQVNHALELPLHRRTQRLEAVWSIEAYRKKEDANQVLLELAILDYNMIQSVYQRDLRETSRWWRRVGLATKLHFARDRLIESFYWAVGVAFEPQYSDCRNSVAKMFSFVTIIDDIYDVYGTLDELELFTDAVERWDVNAINDLPDYMKLCFLALYNTINEIAYDNLKDKGENILPYLTKAWADLCNAFLQEAKWLYNKSTPTFDDYFGNAWKSSSGPLQLVFAYFAVVQNIKKEEIENLQKYHDTISRPSHIFRLCNDLASASAEIARGETANSVSCYMRTKGISEELATESVMNLIDETWKKMNKEKLGGSLFAKPFVETAINLARQSHCTYHNGDAHTSPDELTRKRVLSVITEPILPFER
- Km [7]: 2830 µM
